Tests used:
clinical = details: male, human, plasma, other: intranasal (DMT), buccal (harmine)
Protocol: (§1) The study was conducted as a within-subject, double-blind, randomized placebo-controlled trial. Randomization was performed by an independent individual using a computer-generated random number sequence. All participants underwent 3 randomized drug treatments on separate study days, with an intervening washout period of at least 2 weeks: (1) DMT/HAR: harmine hydrochloride (HCl; 100 mg; buccal orodispersible tablet; ODT) plus DMT (as hemifumarate; 100 mg; intranasal: 10 mg every 15 minutes over 150 minutes), (2) HAR/PLA: harmine (100 mg, buccal ODT) plus placebo nasal spray (NaCl; at same dosing intervals), and (3) PLA/PLA: placebo buccal ODT plus placebo nasal spray. In all conditions, buccal tablets were premedicated for 30 minutes. Food or water intake was not allowed 2 hours before drug administration.
(§2) Thirty minutes following buccal premedication with harmine HCl (100 mg) or placebo, the intranasal repeated-intermittent administration of DMT or placebo was initiated. Volunteers received up to 100 mg DMT in 10 mg dosing steps each 15 minutes (2 × 2 puffs per nostril) over a period of 150 minutes (except for a 30-minute break between 60 and 90 minutes due to a behavioral task). […] Volunteers could adjust each dose (0, 5, 10 mg) based on tolerance, with encouragement to follow the regimen if no adverse effects (AEs) occurred. Thus, volunteers were given the chance to control the psychedelic strength of the experience to enhance safety and tolerability.
(§3) Blood samples were collected from the left or right antecubital vein at −30 (baseline), 0, 30, 60, 90, 120, 150, 180, 195, 210, 240, 270, and 300 minutes after first DMT/placebo administration for analysis of blood plasma levels of harmine, DMT, the 3 major DMT metabolites 3-IAA, DMT-N-oxide, and NMT and the major harmine metabolite harmol. While DMT administration was ongoing, blood drawing was always performed right before DMT administration (time point -1 minute). The venous catheter was connected to a 100 mm Heidelberger plastic tube extension to collect blood samples without disturbing the volunteers during their psychedelic experience. The intravenous line was kept patent with a slow drip (10 mL/h) of heparinized saline (1000 IU heparin in 0.9 g NaCl/dL; HEPARIN Bichsel; Bichsel AG). Blood samples were immediately centrifuged for 10 minutes at 2000 RCF. Then, plasma was transferred to Eppendorf tubes, shock-frosted in liquid nitrogen (~ −196 °C) and stored at −80 °C until assay.
(§4) The data were analyzed and visualized with R Studio version 2021.09.2 + 382.[36] PK-PD parameters were computed using the R-package PKNCA.[37] For Cmax, tmax, AUCs (area under the curves), and half-life calculations, non-compartmental analyses were performed.[38] […] Post hoc pairwise comparisons were calculated using paired Wilcoxon signed-rank tests. P-values were adjusted using the Benjamini-Hochberg multiple testing correction method. Pearson or Spearman correlations were performed (as appropriate according to Shapiro-Wilk tests) to analyze associations between DMT plasma levels and subjective effects.
(§5) For the sample preparation 200 µl of plasma were spiked with 50 µl internal standard (IS) mixture (40 ng/ml DMT-d6 and harmine-d3) and 50 µl methanol (MeOH). Proteins were precipitated by adding 400 µl of acetonitrile (ACN). The samples were shaken for 10 minutes and centrifuged for 5 min at 10‘000 rpm. 350 µl of the supernatant was transferred into an auto-sampler vial, evaporated to dryness under a gentle stream of nitrogen at room temperature and reconstituted in 100 µl eluent-mixture (98:2, v/v).

[1] = Plasma pharmacokinetics of DMT, harmine and their metabolites (non-compartmental analysis)
Protocol: as §1, §2, §3, §4, §5

healthy male volunteers = experiment: Acute subjective drug effects, visual analog scales (VAS 0–100); type: in vivo, human
Protocol: The detailed dosing scheme is depicted in Figure 1.
The intensity of acute subjective effects was monitored with visual analog scales (VASs, range 0–100) on a touchscreen tablet throughout the study day at baseline (−90), 0, 30, 60, 90, 120, 180, 240, and 300 after the first DMT/placebo administration. At 360 minutes after the first DMT/placebo administration, a phenomenological interview was conducted with participants to further explore acute subjective drug effects. For PK-PD analyses, we included VAS for intensity, liking, disliking, and arousal in the present paper. Further analyses on a set of neurophysiological, psychometric, and phenomenological assessments will be presented in forthcoming manuscripts.

SMILES | AUC (clinical) | Cmax (clinical) | Tmax (clinical) | plasma levels after harmine administration ([1]; harmine-only (HAR) condition) | correlation (r) between subjective intensity ratings and DMT plasma levels (healthy male volunteers; DMT + harmine condition, 95% CI 0.51-0.66) | duration of psychedelic effects / overall drug action (healthy male volunteers; DMT + harmine, after first DMT administration) | duration of acute drug (psychedelic) effects (healthy male volunteers; DMT co-administered with harmine) | time blood plasma levels remained constant after the last intranasal DMT dose ([1]; DMT + harmine condition) | half-life ([1]; male, human, plasma, other: intranasal)
O=C(O)Cc1c[nH]c2ccccc12 [3-IAA, indole-3-acetic acid] | 7580 ng·h/mL | 2910 ng/mL | 4.1 h | decreased | – | – | – | – | –
CN(C)CCc1c[nH]c2ccccc12 [DMT, N,N-dimethyltryptamine] | – | – | – | – | 0.59 | ≤ 240 min | 2 to 3 h | 30 min | 0.6 h

From publication PMC11770821, “Pharmacokinetics and pharmacodynamics of an innovative psychedelic N,N-dimethyltryptamine/harmine formulation in healthy participants: a randomized controlled trial” (International Journal of Neuropsychopharmacology, 2025)
